{"source": "patent US4910214A", "about": "“Optical isomer of an imidazole derivative medetomidine as an alpha-2-receptor agonist” (Farmos Yhtyma Oy, priority 1987, dated 1990)", "key": {"[1]": {"target": "α1 -receptors", "assay": "3H-prazosin displacement, receptor binding in rat brain membranes", "excerpt": "(§1) The selectivity of the d-enantiomer as an α2 -agonist was studied in receptor binding experiments using rat brain membranes. […] 108, 163-9, 1985."}, "[2]": {"test_system": "mice", "assay": "Acetic acid-induced writhing test", "type": "in vivo", "conditions": "Mus musculus, sc, 45 min before 1% acetic acid i.p.; writhes counted 25 min", "protocol": "The sedative-analgesic properties of the compounds were studied in the spontaneous motility and writhing-test in the mouse. Spontaneous motility of mice and rats was measured using the Animex-activity meter. The test compounds were administered i.p. 30 minutes before the measuring periods of two minutes. In the writhing test the compounds studied and saline were administered s.c. to […], and 45 min. later 1 ml of 1% acetic acid was administered i.p. The number of writhes was recorded in the following 25 min. period (Koster et al., Fred. Proc. 18: 412, 1959)."}, "[3]": {"test_system": "mice", "assay": "Spontaneous motility (Animex-activity meter)", "type": "in vivo", "conditions": "Mus musculus, sc, 0.5 h; s.c.; 30 minutes before two-minute measuring period; read-out: ED50 in reducing spontaneous motility in mice"}, "[4]": {"test_system": "α2 -receptors", "assay": "biochemical", "type": "binding, rat", "conditions": "ratio of 3H-prazosin IC50 to 3H-clonidine IC50", "excerpt": "as §1"}, "[5]": {"target": "T1, α2 -receptors (Rattus norvegicus, UniProt P22909)", "T1 construct": "from tissue; host or cells: rat brain membranes", "T1 sequence (P22909 1-465)": "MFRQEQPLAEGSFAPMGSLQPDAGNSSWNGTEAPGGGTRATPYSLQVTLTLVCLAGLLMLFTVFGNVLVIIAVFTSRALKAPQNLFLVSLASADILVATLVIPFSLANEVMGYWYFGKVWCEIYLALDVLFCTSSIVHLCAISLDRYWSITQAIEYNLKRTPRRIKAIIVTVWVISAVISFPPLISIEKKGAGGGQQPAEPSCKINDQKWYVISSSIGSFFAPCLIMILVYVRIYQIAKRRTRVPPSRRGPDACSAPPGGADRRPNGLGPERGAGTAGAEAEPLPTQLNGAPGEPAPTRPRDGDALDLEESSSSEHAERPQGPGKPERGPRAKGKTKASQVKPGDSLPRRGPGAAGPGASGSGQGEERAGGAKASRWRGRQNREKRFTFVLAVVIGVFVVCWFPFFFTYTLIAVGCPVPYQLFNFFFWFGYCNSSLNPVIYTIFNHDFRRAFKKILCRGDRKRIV", "assay": "biochemical", "type": "binding", "excerpt": "as §1"}, "[6]": {"target": "T2, presynaptic α2 -adrenoceptors (Mus musculus, UniProt Q01338)", "T2 construct": "isolated, electrically stimulated mouse was deferens preparation; from tissue; host or cells: mouse vas deferens", "T2 sequence (Q01338 1-465)": "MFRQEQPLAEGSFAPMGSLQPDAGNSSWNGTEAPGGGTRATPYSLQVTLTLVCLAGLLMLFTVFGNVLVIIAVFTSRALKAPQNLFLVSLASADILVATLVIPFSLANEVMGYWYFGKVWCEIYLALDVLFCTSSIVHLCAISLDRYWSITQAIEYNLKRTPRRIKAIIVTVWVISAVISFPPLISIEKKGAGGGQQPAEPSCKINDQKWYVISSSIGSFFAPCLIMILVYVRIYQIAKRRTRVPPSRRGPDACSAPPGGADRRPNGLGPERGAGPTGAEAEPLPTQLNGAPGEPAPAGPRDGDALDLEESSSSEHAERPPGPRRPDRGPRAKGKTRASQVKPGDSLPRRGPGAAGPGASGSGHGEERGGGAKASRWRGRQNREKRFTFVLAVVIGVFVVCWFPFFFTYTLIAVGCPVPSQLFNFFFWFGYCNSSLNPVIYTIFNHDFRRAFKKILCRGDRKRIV", "assay": "α2-agonism in vitro, isolated electrically stimulated mouse vas deferens", "type": "cell-based", "conditions": "for EC50: negative log of molar concentration producing 50 percent of maximal inhibition of electrically induced contractions, read-out: α2 -agonism in vitro (mouse vas deferens). pD2 (converted)", "protocol": "α2 -agonism was determined by means of isolated, electrically stimulated mouse was deferens preparation (Marshall et al., Br. J. Pharmac. 62, 147-151, 1978). […] Results are shown in Table 1, where the α2 -agonist effect is presented as the pD2 -value (negative logarith of the molar concentration of the compound producing 50 percent of maximal inhibition.)"}, "[7]": {"test_system": "rat", "assay": "Elevated t-maze test, exploration of open and enclosed arms (anxiolytic effects)", "type": "in vivo", "conditions": "for Mean number of entries, closed / Mean number of entries, open / Mean number of entries, total / open/total entries: 5 minutes, n = 6", "protocol": "The anxiolytic effects of the compounds were studied using a method described by Handley and Mithoni: Naunyn-Schmiedeb, Arch. Pharmacol. 327, 1-5, 1984. In this test the manner of exploration of open and enclosed arms in an elevated t-maze by a rat is examined. It has been shown that anxiolytic drugs increase the relative exploration of open arms. A rat is placed in the center of the t-maze and the number of open and enclosed entries is recorded during 5 minutes."}, "[8]": {"test_system": "rat", "conditions": "for CSF MHPG-SO4 (% of control): 4 h after adm.", "excerpt": "It is well known that anxiety states connected to withdrawal symptoms are due to noradrenergic hyperactivity."}, "[9]": {"test_system": "Sprague-Dawley rats", "conditions": "anesthetized rats; for Decrease in BP / Decrease in heart rate: femoral vein", "protocol": "After this, the femoral artery was connected by a polyethylene tube to a blood pressure transducer. The test substance was then injected into the femoral vein and the blood pressure and the pulse frequency were registered with a recorder."}}, "note": "pIC50: −log10 of the molar value. Where two headings read alike, the source gives them in different places."}
{"compound": "Cc1cccc(C(C)c2cnc[nH]2)c1C", "note": "(racemic) [medetomidine]", "values": [{"measurement": "pIC50", "setting": "[1]", "value": 4.78}, {"measurement": "ED50", "setting": "[2]", "value": 0.02, "unit": "mg/kg"}, {"measurement": "ED50", "setting": "[3]", "value": 0.05, "unit": "mg/kg"}, {"measurement": "α2 /α1 -selectivity", "setting": "[4]", "value": 5060}, {"measurement": "pIC50", "setting": "[5]", "value": 8.48}, {"measurement": "EC50", "setting": "[6]", "value": 1, "unit": "nM"}]}
{"compound": "Cc1cccc([C@@H](C)c2cnc[nH]2)c1C", "note": "[1-enantiomer]", "values": [{"measurement": "pIC50", "setting": "[1]", "value": 3.72}, {"measurement": "ED50", "setting": "[2]", "value": "> 10", "unit": "mg/kg"}, {"measurement": "ED50", "setting": "[3]", "value": "> 10", "unit": "mg/kg"}, {"measurement": "α2 /α1 -selectivity", "setting": "[4]", "value": 4129}, {"measurement": "pIC50", "setting": "[5]", "value": 7.34}, {"measurement": "EC50", "setting": "[6]", "value": 1000, "unit": "nM"}, {"measurement": "type of agonism (mouse vas deferens)", "setting": "[6]; remark in pD2 cell", "value": "partial agonist"}]}
{"compound": "Clc1cccc(Cl)c1N=C1NCCN1", "note": "[clonidine, reference compound]", "values": [{"measurement": "pIC50", "setting": "[1]", "value": 5.21}, {"measurement": "ED50", "setting": "[2]", "value": 0.03, "unit": "mg/kg"}, {"measurement": "ED50", "setting": "[3]", "value": 0.3, "unit": "mg/kg"}, {"measurement": "EC50", "setting": "[6]", "value": 3.16, "unit": "nM"}]}
{"compound": "Cc1cccc([C@H](C)c2cnc[nH]2)c1C", "note": "[d-enantiomer]", "values": [{"measurement": "pIC50", "setting": "[1]", "value": 4.26}, {"measurement": "ED50", "setting": "[2]", "value": 0.01, "unit": "mg/kg"}, {"measurement": "Mean number of entries, closed", "setting": "[7]; dose 0.0003 mg/kg", "value": 10.6}, {"measurement": "Mean number of entries, open", "setting": "[7]; dose 0.0003 mg/kg", "value": 4.8}, {"measurement": "Mean number of entries, total", "setting": "[7]; dose 0.0003 mg/kg", "value": 14.0}, {"measurement": "open/total entries", "setting": "[7]; dose 0.0003 mg/kg", "value": 0.20}, {"measurement": "Mean number of entries, closed", "setting": "[7]; dose 0.001 mg/kg", "value": 10.6}, {"measurement": "Mean number of entries, open", "setting": "[7]; dose 0.001 mg/kg", "value": 3.2}, {"measurement": "Mean number of entries, total", "setting": "[7]; dose 0.001 mg/kg", "value": 13.8}, {"measurement": "open/total entries", "setting": "[7]; dose 0.001 mg/kg", "value": 0.23}, {"measurement": "Mean number of entries, closed", "setting": "[7]; dose 0.003 mg/kg", "value": 9.5}, {"measurement": "Mean number of entries, open", "setting": "[7]; dose 0.003 mg/kg", "value": 4.0}, {"measurement": "Mean number of entries, total", "setting": "[7]; dose 0.003 mg/kg", "value": 13.5}, {"measurement": "open/total entries", "setting": "[7]; dose 0.003 mg/kg", "value": 0.29}, {"measurement": "Mean number of entries, closed", "setting": "[7]; dose 0.01 mg/kg", "value": 8.8}, {"measurement": "Mean number of entries, open", "setting": "[7]; dose 0.01 mg/kg", "value": 5.8}, {"measurement": "Mean number of entries, total", "setting": "[7]; dose 0.01 mg/kg", "value": 14.6}, {"measurement": "open/total entries", "setting": "[7]; dose 0.01 mg/kg", "value": 0.39}, {"measurement": "Mean number of entries, closed", "setting": "[7]; dose 0.03 mg/kg", "value": 3.0}, {"measurement": "Mean number of entries, open", "setting": "[7]; dose 0.03 mg/kg", "value": 2.5}, {"measurement": "Mean number of entries, total", "setting": "[7]; dose 0.03 mg/kg", "value": 5.5}, {"measurement": "open/total entries", "setting": "[7]; dose 0.03 mg/kg", "value": 0.45}, {"measurement": "anxiolytic effect in the elevated t-maze test (in words)", "setting": "[7]; summary of Table 5", "value": "anxiolytic profile"}, {"measurement": "effect on noradrenaline release (in words)", "setting": "[8]; central and peripheral nervous systems", "value": "able to reduce noradrenaline release"}, {"measurement": "CSF MHPG-SO4 (% of control)", "setting": "[8]; dose 3 μg/kg", "value": "-10 % of control"}, {"measurement": "CSF MHPG-SO4 (% of control)", "setting": "[8]; dose 10 μg/kg", "value": "-20 % of control"}, {"measurement": "CSF MHPG-SO4 (% of control)", "setting": "[8]; dose 30 μg/kg", "value": "-30 % of control"}, {"measurement": "CSF MHPG-SO4 (% of control)", "setting": "[8]; dose 100 μg/kg", "value": "-65 % of control"}, {"measurement": "ED50", "setting": "[3]", "value": 0.02, "unit": "mg/kg"}, {"measurement": "α2 /α1 -selectivity", "setting": "[4]", "value": 45849}, {"measurement": "pIC50", "setting": "[5]", "value": 8.92}, {"measurement": "effect on blood pressure and heart rate (in words)", "setting": "[9]; summary of Table 7", "value": "clear anti-hypertensive and bradycardia effects"}, {"measurement": "Decrease in BP", "setting": "[9]; dose 0.001 mg/kg", "value": -8, "unit": "%"}, {"measurement": "Decrease in heart rate", "setting": "[9]; dose 0.001 mg/kg", "value": -21, "unit": "%"}, {"measurement": "Decrease in BP", "setting": "[9]; dose 0.003 mg/kg", "value": -23, "unit": "%"}, {"measurement": "Decrease in heart rate", "setting": "[9]; dose 0.003 mg/kg", "value": -40, "unit": "%"}, {"measurement": "Decrease in BP", "setting": "[9]; dose 0.01 mg/kg", "value": -43, "unit": "%"}, {"measurement": "Decrease in heart rate", "setting": "[9]; dose 0.01 mg/kg", "value": -47, "unit": "%"}, {"measurement": "Decrease in BP", "setting": "[9]; dose 0.03 mg/kg", "value": -45, "unit": "%"}, {"measurement": "Decrease in heart rate", "setting": "[9]; dose 0.03 mg/kg", "value": -48, "unit": "%"}, {"measurement": "Decrease in BP", "setting": "[9]; dose 0.1 mg/kg", "value": -45, "unit": "%"}, {"measurement": "Decrease in heart rate", "setting": "[9]; dose 0.1 mg/kg", "value": -50, "unit": "%"}, {"measurement": "EC50", "setting": "[6]", "value": 0.501, "unit": "nM"}]}
{"compound": "Cc1cccc(Cc2c[nH]cn2)c1C", "note": "[detomidine]", "values": [{"measurement": "ED50", "setting": "[2]", "value": 0.02, "unit": "mg/kg"}, {"measurement": "ED50", "setting": "[3]", "value": 0.3, "unit": "mg/kg"}, {"measurement": "pIC50", "setting": "[5]", "value": 8.43}, {"measurement": "EC50", "setting": "[6]", "value": 3.16, "unit": "nM"}]}
{"compound": "CN1C(=O)CN=C(c2ccccc2)c2cc(Cl)ccc21", "note": "[diazepam, reference compound]", "values": [{"measurement": "Mean number of entries, closed", "setting": "[7]; dose 1 mg/kg", "value": 10.5}, {"measurement": "Mean number of entries, open", "setting": "[7]; dose 1 mg/kg", "value": 5.2}, {"measurement": "Mean number of entries, total", "setting": "[7]; dose 1 mg/kg", "value": 15.7}, {"measurement": "open/total entries", "setting": "[7]; dose 1 mg/kg", "value": 0.33}]}
